In one assay the test system is CpomOR6a. The assay can be described thus: Single sensillum recordings, CpomOR6a expressed in Drosophila at1 OSNs. Format: cell-based, Cydia pomonella. Particulars: for Spike/s: 10 μg per stimulus. An excerpt:
To perform heterologous expression in D. melanogaster OSNs, CpomORs were amplified using primers in Table 2 and purified PCR products were cloned into the PCR8/GW/TOPO plasmid (Invitrogen) following the recommended protocol. Cassettes with inserts were then transferred from their PCR8/GW/TOPO plasmids to the destination vector (pUASg-HA.attB, constructed by E. Furger and J. Bischof, kindly provided by the Basler group, Zürich), using the Gateway LR Clonase II kit (Invitrogen). The integrity and orientation of inserts was confirmed by sequencing (Sanger sequencer, 3730xl). Transformant UAS-CpomOR3 and UAS-CpomOR1 lines were generated by Best Gene (Chino Hills, CA, USA), using the PhiC31 integrase system, while the transformant UAS-CpomOR6a line was generated in our labs. Briefly, recombinant pUASg-HA.attB-CpomOR plasmids were injected into embryos of a D. melanogaster line containing an attP insertion site within the third chromosome (genotype y1 M{vas-int.Dm}ZH-2A w*; M{3xP3-RFP.attP}ZH-86Fb), leading to non-random integration. To drive expression of CpomORs in at1 OSNs in place of the endogenous receptor Or67d, transformant UAS-CpomOR lines were crossed to the knock-in Or67d^GAL4 line (kindly provided by Barry Dickson) to generate double homozygous lines w^+;UAS-CpomOR; Or67d^GAL4. Additionally, to drive expression of CpomOR3 in ab3A OSNs, the UAS-CpomOR3 line was crossed to the Δhalo;Or22a-Gal4 mutant line[20][57]. To verify insertion of UAS-CpomORs constructs into the genome, gDNA was extracted and used as template in PCR with primers for the full ORF of CpomORs (Table 2).
CpomOR1 and CpomOR6a expressed in at1 OSNs, and CpomOR3 expressed in ab3A OSNs, were tested through single sensillum recordings (SSR). Three to 8-day-old flies were immobilized in 100 μL pipette tips with only the top half of the head protruding. The left antenna of each insect was gently pushed with a glass capillary against a double-sided adhesive tape placed on a piece of glass. This piece of glass and the pipette tip were fixed with dental wax on a microscope slide. Electrolytically sharpened tungsten electrodes (Harvard Apparatus Ltd, Edenbridge, United Kingdom) were used to penetrate the insect´s body. The reference electrode was manually inserted in the right eye of the fly, while the recording electrode was manoeuvred with a DC-3K micromanipulator equipped with a PM-10 piezo translator (Märzhäuser Wetzler GmbH, Wetzler, Germany) and inserted at the base of the determined sensilla. Signals coming from the olfactory sensory neurons were amplified 10 times with a probe (INR-02, Syntech, Hilversum, the Netherlands), digitally converted through an IDAC-4-USB (Syntech) interface, and visualized and analysed with the software Autospike v. 3.4 (Syntech). A constant flow of 0.65 m/s of humidified air (charcoal-filtered) was delivered through a glass tube to the antenna. The panel of odorants was given to the insect by inserting pipettes containing a piece of filter paper with the correspondent stimulus in a lateral hole of the glass tube and puffing a flow of 2.5 mL of air during 0.5 s through the pipette. For CpomOR1 and CpomOR6a the panel of odorants was prepared by applying 10 μL of a solution of 1.0 μg/μL of the compounds in Supplementary Dataset S2 and Supplementary Dataset S3, for a total amount of 10 μg per stimulus. In the case of CpomOR3, a similar dilution process was used for the dose response experiments of ethyl-(E,Z)-2,4-decadienoate and methyl-(E,Z)-2,4-decadienoate, as well for dose response of experiments of codlemone acetate in CpomOR6a. Compounds were diluted from concentrations ranging from 0.01 ng/μL to 10 μg/μL in decadic steps, allowing reaching concentrations from 100 pg to 100 μg per stimulus when 10 μL of the dilution was applied in the piece of filter paper. […]

The next assay concerns CpomOR1. The assay can be described thus: Single sensillum recordings, CpomOR1 expressed in Drosophila at1 OSNs. Format: cell-based, Cydia pomonella.
Where [1] appears, read: replicate 1, 10 μg per stimulus.
[2] abbreviates: replicate 2, 10 μg per stimulus.
Where [3] appears, read: replicate 3, 10 μg per stimulus.
[4] abbreviates: replicate 4, 10 μg per stimulus.
The mark [5] stands for this setting: replicate 5, 10 μg per stimulus.

Turning to `C/C=C/C=C/CCCCCCCOC(C)=O` [codlemone acetate, (E,E)-8,10-dodecadien-1-yl acetate], the “response compared with the solvent” value with CpomOR6a (10 μg doses, Mann-Whitney U Test, p < 0.05) was “strongest response significantly different from the solvent”. In the assay with CpomOR6a (dose response, dose per stimulus), this compound came in with a threshold for detection of 1.0 microgram. Besides, the Spike/s with CpomOR6a (replicate 1) was 46 Spike/s; in the assay on CpomOR6a (replicate 2), 50 Spike/s; with CpomOR6a (replicate 3) it was 44 Spike/s; in the assay on CpomOR6a (replicate 4), 54 Spike/s; with CpomOR6a (replicate 5), 80 Spike/s; in the assay with CpomOR6a (replicate 6) it was 46 Spike/s. In addition, the Spike/s in the assay on CpomOR6a (replicate 7) is given as 82 Spike/s; with CpomOR6a (replicate 8) it was 62 Spike/s; in the assay with CpomOR6a (replicate 9), 58 Spike/s. The Spikes/s in the assay with CpomOR1 (setting [1]) is on record as 2 Spikes/s; in the assay with CpomOR1 (setting [2]), 4 Spikes/s; in the assay on CpomOR1 (setting [3]) it was 4 Spikes/s; with CpomOR1 (setting [4]), 2 Spikes/s; in the assay on CpomOR1 (setting [5]), 4 Spikes/s.
Turning to `C/C=C/C=C/CCCCCCCO` [codlemone, (E,E)-8,10-dodecadien-1-ol], the Spike/s in the assay on CpomOR6a (replicate 1) was 0 Spike/s; in the assay on CpomOR6a (replicate 2) it was 0 Spike/s; in the assay with CpomOR6a (replicate 3), -4 Spike/s; in the assay on CpomOR6a (replicate 4), 6 Spike/s; in the assay with CpomOR6a (replicate 5), 0 Spike/s; in the assay with CpomOR6a (replicate 6) it was 2 Spike/s. Further, the Spike/s in the assay with CpomOR6a (replicate 7) turned out to be 14 Spike/s; in the assay with CpomOR6a (replicate 8), 0 Spike/s; in the assay with CpomOR6a (replicate 9), 2 Spike/s. Besides, the Spikes/s is reported as -4 Spikes/s with CpomOR1 (replicate 1, 100 ng); 6 Spikes/s in the assay on CpomOR1 (setting [1]); 2 Spikes/s with CpomOR1 (replicate 2, 100 ng); 2 Spikes/s in the assay with CpomOR1 (setting [2]); 2 Spikes/s with CpomOR1 (replicate 3, 100 ng); 0 Spikes/s in the assay on CpomOR1 (setting [3]). Also, the Spikes/s in the assay with CpomOR1 (replicate 4, 100 ng) was -8 Spikes/s; in the assay on CpomOR1 (setting [4]), -12 Spikes/s; in the assay on CpomOR1 (replicate 5, 100 ng), -4 Spikes/s; in the assay with CpomOR1 (setting [5]), 0 Spikes/s.

The record behind these values is article PMC5259778, “Candidate pheromone receptors of codling moth Cydia pomonella respond to pheromones and kairomones” (Scientific Reports, 2017).
